Measurements published in patent publication US6635242B2, “Broad spectrum microbicidal and spermicidal compositions, devices, and methods” (The Pennsylvania State University, priority 1998, dated 2003).

What was measured:
CRPV = format: in vivo, cottontail rabbit papillomavirus; settings: 0.05% SDS
Bovine sperm = Bovine sperm motility following detergent addition; format: cell-based; set-up: key to Bovine Sperm Motility Following Detergent Addition: +++: Vigorous swimming; ++/−: Many swimmers/some dead; +/−: Occasional swimmer/most dead; −: All dead
Excerpt: The following data represent an in vitro experiment to test the efficacy of SDS and other detergents as spermicidal agents. Frozen samples of bull semen were obtained, thawed and placed in a test tube. Aliquots were taken out and put in a separate test tube where they were mixed with detergent (SDS, C31G, N-9 or a mixture of SDS and N-9) to a final percent as listed in Tables 8 and 9 below. After mixing, the samples were immediately placed on a microscope slide and visually examined for sperm movement. The experiment was conducted one sample at a time so that the visual examination was conducted immediately after addition of detergent to the sample. As a result, indications in the table of complete inactivation indicate virtually instantaneous inactivation of the sperm. […] Occasional swimmers means very few, on the order of approximately 1% of the population of sperm present in the sample, indicating approximately 99% of the sperm were inactivated by the detergent.

HSV-2 = experiment: Protection of mice from vaginal infection with live HSV-2; format: in vivo, herpes simplex virus; settings: Swiss-Webster mice
Procedure: The following data represent an in vivo experiment to test both the toxicity and the efficacy of SDS in the protection of mice from vaginal infection with live herpes simplex virus (HSV-2).
The experiment used outbred, female, Swiss-Webster mice. Mice were anesthetized and then SDS or control solutions (25μl ) was instilled into the vagina using a yellow pipette tip. The SDS was not formulated into a vaginal cream or foam but merely dissolved into phosphate buffered saline. These solutions have low viscosity. Fluids were instilled into groups of 10 mice at one time. Following administration of SDS or control solutions to the group of 10, then an additional 25 μof virus or control fluid was instilled. Mice were allowed to recover from the anesthesia and then the mice were checked daily for symptoms, beginning on day three and until 12 days after inoculation. Vaginal swabs were also performed on the mice on a daily basis, beginning on day three, in order to determine shedding of virus. FIGS. 3A-3G show the total symptoms per group on days 3 through 12 for each of the following symptoms: swelling, vaginal exudate, redness, death, leg paralysis, perianal hair loss and any symptom.

BPV-1 = BPV-1 focus assay in C127 mouse cells; format: cell-based, bovine papillomavirus; settings: for foci/plate Exp. 2 Day 14 / foci/plate Exp. 2 Day 17: 37° C. 10 minutes; for foci/plate Exp. 2 Day 14 / foci/plate Exp. 2 Day 17 / foci/plate Exp. 1 day 12: diluted 1:1000; for foci/plate Exp. 1 day 12: 37° C. 30 minutes
Procedure: Cell-free stocks of BPV-1 were prepared by extraction (10% w/v) of epidermal bovine warts in phosphate buffered saline (PBS). In order to detect the transforming ability of BPV-1, C127 mouse cells were seeded (3×10^5 cells per flask) into T-25^2 flasks. After 24 hr of growth, subconfluent cells were infected with BPV-1. For the positive controls, stock virus (20 μl) was diluted (1:1) with PBS, incubated at 37° C. for 10 min, diluted […] and then added (100 μl ) into the 5 ml of cell culture medium present on the cells. Cells were refed at 24 hours and subsequently 2 times weekly. The presence of morphologically transformed foci was counted after 2 weeks and then again at 3 weeks.
Virus inactivations were carried out in vitro by addition of concentrated SDS solutions to the virus stocks (20 μl of virus plus 20 μl of detergent) and subsequent incubation at 37° C. for 10 or 30 min as indicated. Following inactivation, virus was diluted 1000 fold to lower the detergent concentration and the preparations were immediately used for infection as above.
Although SDS could effectively reduce HSV-2 infectivity, it remained possible that this destruction was mediated by envelope removal. Because papillomaviruses are non-enveloped, the possibility remained that SDS would fail to inactivate these viruses. We utilized BPV-1 as a prototype PV because of its ability to rapidly (within 2 weeks) form multi-layered transformed foci in mouse fibroblasts in an in vitro assay. Table 3 describes results of two separate experiments in which stocks of BPV-1 were incubated at 37° C. with various concentrations of SDS (5% to 5×10^−4%) for either 10 or 30 minutes, diluted to lower the SDS concentration (to avoid cell toxicity) and then used to infect C127 cells. […] Table 4 lists several other commercially available detergents that were tested for possible inactivation of BPV-1. None of these detergents inactivated the morphologic transforming properties of the BPV-1.

[1] = test system: split thickness grafts of neonatal foreskin; experiment: SDS exposure and viability of human foreskin xenografts; format: in vivo; settings: 0.05% SDS, no virus; immediately and days 1, 5, 11 and 20
Procedure: A second set of control grafts was exposed only to identical concentrations of SDS and no virus. These grafts were harvested on days 1, 5, 11 and 20 following transplantation in order to follow the viability and growth of the grafts after SDS exposure.
Because of concern about the potential for SDS to kill human epithelium, control experiments were performed in which split thickness grafts of neonatal foreskin were exposed to 0.05% SDS alone and then subsequently grafted. All conditions in this experiment were identical to those used in the HPV 11 infections with treated virus, except that virus was not present. SDS-exposed grafts (2 animals at each time) were harvested, fixed and sectioned immediately after exposure, and on days 1, 5, 11 and 20 after treatment. […] The original split thickness grafts were approximately 1 mm×1 mm×1 mm in size; in addition they were punctured many times with the tip of a needle in order to allow entrance of the HPV 11 and/or the SDS into the epithelial layers. Although it is possible that some epithelial cells may have been damaged or killed during SDS exposure, damage was minimal and epithelial growth in the grafts was normal.

[2] = 2.5 × 10^−3 % SDS during treatment
[3] = 5 × 10^−2 % SDS during treatment
[4] = 5 × 10^−3 % SDS during treatment
[5] = 5 × 10^−4 % SDS during treatment

Which “development of papillomas at the six sites that received SDS treated preparations (FIG. 1b)” value (CRPV; 10^−1 dilution of virus stock, 10 min, 37° C., rabbits) does the source give for `CCCCCCCCCCCCOS(=O)(=O)[O-].[Na+]` [SDS, Sodium dodecyl sulfate] here?
The value was “delayed in the development of papillomas”.

And the “inactivation of CRPV (GMD of lesions, FIG. 1a)” value (CRPV; 10^−1 dilution of virus stock, 10 min, 37° C., rabbits, days 18-50)?
Its value is “substantially inactivated”.

And the “sites inoculated with treated virus in which papillomas failed to develop” value (CRPV; 10^−2 dilution of CRPV stock, 37° C. 10 min, five rabbits, 3-6 weeks)?
The value was 8 of 10.

What about the “Bovine Sperm Motility Following Detergent Addition” value (Bovine sperm; Table 8, 0.0125% detergent) of the same compound?
The value was “+/−”.

What about the “timing of sperm inactivation” value (Bovine sperm; Table 8, 0.0125% detergent, delayed = approximately 10 minutes) of the same compound?
The value was “(delayed)”.

And the “Bovine Sperm Motility Following Detergent Addition” value (Bovine sperm; Table 8, 0.025% detergent)?
Its value is “−”.

What about the “Bovine Sperm Motility Following Detergent Addition” value (Bovine sperm; Table 8, 0.5% detergent) of the same compound?
Its value is “−”.

And the “Bovine Sperm Motility Following Detergent Addition” value (Bovine sperm; Table 8, 1% detergent)?
Its value is “−”.

What about the “Bovine Sperm Motility Following Detergent Addition” value (Bovine sperm; Table 8, 2% detergent) of the same compound?
The value was “−”.

And the “Bovine Sperm Motility Following Detergent Addition” value (Bovine sperm; Table 9, 0.125% detergent)?
Its value is “++/−”.

What about the “Bovine Sperm Motility Following Detergent Addition” value (Bovine sperm; Table 9, 0.25% detergent) of the same compound?
Its value is “++/−”.

And the “Bovine Sperm Motility Following Detergent Addition” value (Bovine sperm; Table 9, 0.5% detergent)?
The value was “++/−”.

What about the “Bovine Sperm Motility Following Detergent Addition” value (Bovine sperm; Table 9, 1% detergent) of the same compound?
Its value is “++/−”.

And the “Bovine Sperm Motility Following Detergent Addition” value (Bovine sperm; Table 9, 2% detergent)?
The value was “+/−”.

What about the “protection from HSV-2 inoculation of the vagina, dose response” value (HSV-2; 4% SDS) of the same compound?
The value was “most protection”.

What about the “protection from HSV-2 inoculation of the vagina (symptoms days 3-12)” value (HSV-2; all concentrations of SDS (0.5%, 1%, 2%, 4%) in PBS, 25 μl intravaginal) of the same compound?
The value was “significant protection”.

What about the “foci/plate Exp. 2 Day 14” value (BPV-1; [2]) of the same compound?
Its value is 273.

What about the “foci/plate Exp. 2 Day 17” value (BPV-1; [2]) of the same compound?
The value was 162.

What about the “foci/plate Exp. 1 day 12” value (BPV-1; 5 % SDS during treatment) of the same compound?
Its value is 0.

And the “foci/plate Exp. 1 day 12” value (BPV-1; 5 × 10^−1 % SDS during treatment)?
Its value is 0.

And the “foci/plate Exp. 2 Day 14” value (BPV-1; [3])?
The value was 0.

And the “foci/plate Exp. 2 Day 17” value (BPV-1; [3])?
The value was 0.

What about the “foci/plate Exp. 1 day 12” value (BPV-1; [3]) of the same compound?
Its value is 0.

What about the “foci/plate Exp. 2 Day 14” value (BPV-1; [4]) of the same compound?
Its value is 271.

And the “foci/plate Exp. 2 Day 17” value (BPV-1; [4])?
The value was 150.

What about the “foci/plate Exp. 1 day 12” value (BPV-1; [4]) of the same compound?
The value was 0.

And the “foci/plate Exp. 2 Day 14” value (BPV-1; [5])?
Its value is 229.

What about the “foci/plate Exp. 2 Day 17” value (BPV-1; [5]) of the same compound?
Its value is 151.

What about the “relative potency in dose response curves” value (BPV-1; compared with other alkyl sulfate group members) of the same compound?
Its value is “most potent”.

And the “inactivation of BPV-1 morphologic transformation of C127 cells” value (BPV-1; detergent 1% final concentration, 37° C., 10 min)?
The value was “completely eliminated virus foci”.

What about the “concentration (as low as) that totally inactivates BPV-1 transforming ability” value (BPV-1; treatment of the virus at 37° C. for 10 minutes) of the same compound?
The value was 0.05%.

And the “concentration (as low as) that totally inactivates BPV-1 transforming ability” value (BPV-1; treatment of the virus at 37° C. for 30 minutes)?
Its value is 0.005%.

And the “viability of grafts exposed to SDS alone (histology)” value [1]?
Its value is “fully viable epithelium on all days and no apparent necrosis”.
